In patent US11192877B2, “3-(5-hydroxy-1-oxoisoindolin-2-yl)piperidine-2,6-dione derivatives and uses thereof” (Novartis AG, priority 2018, dated 2021):
Counter-ions that a name gives are not always drawn.

These compounds were tested against IKZF2 (Helios) (Homo sapiens, UniProt Q96SW2+Q9UKS7) (assay: Prolabel quantification of IKZF2 protein levels in 293GT cells). Conditions: 24 h, Pro-label assay, 293GT cells, 10 μM, read-out: IKZF2 % protein reduction at 10 μM, 24 h.
Format: cell-based

Sequence of IKZF2 (Helios) (Q9UKS7 whole entry): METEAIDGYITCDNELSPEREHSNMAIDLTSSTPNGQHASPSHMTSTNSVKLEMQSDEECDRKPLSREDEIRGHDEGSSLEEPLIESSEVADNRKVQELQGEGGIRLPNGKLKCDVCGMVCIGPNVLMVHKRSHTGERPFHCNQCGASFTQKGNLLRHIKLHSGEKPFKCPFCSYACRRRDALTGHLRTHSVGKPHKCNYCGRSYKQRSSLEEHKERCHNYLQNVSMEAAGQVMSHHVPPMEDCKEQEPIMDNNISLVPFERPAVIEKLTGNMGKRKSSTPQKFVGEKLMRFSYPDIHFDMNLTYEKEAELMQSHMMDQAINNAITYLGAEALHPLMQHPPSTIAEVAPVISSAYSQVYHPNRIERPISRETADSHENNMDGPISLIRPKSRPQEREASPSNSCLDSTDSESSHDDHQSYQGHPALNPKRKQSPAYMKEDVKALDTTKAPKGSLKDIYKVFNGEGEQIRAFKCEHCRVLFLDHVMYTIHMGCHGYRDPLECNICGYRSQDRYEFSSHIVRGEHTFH
Sequence of IKZF2 (Helios) (Q96SW2 whole entry): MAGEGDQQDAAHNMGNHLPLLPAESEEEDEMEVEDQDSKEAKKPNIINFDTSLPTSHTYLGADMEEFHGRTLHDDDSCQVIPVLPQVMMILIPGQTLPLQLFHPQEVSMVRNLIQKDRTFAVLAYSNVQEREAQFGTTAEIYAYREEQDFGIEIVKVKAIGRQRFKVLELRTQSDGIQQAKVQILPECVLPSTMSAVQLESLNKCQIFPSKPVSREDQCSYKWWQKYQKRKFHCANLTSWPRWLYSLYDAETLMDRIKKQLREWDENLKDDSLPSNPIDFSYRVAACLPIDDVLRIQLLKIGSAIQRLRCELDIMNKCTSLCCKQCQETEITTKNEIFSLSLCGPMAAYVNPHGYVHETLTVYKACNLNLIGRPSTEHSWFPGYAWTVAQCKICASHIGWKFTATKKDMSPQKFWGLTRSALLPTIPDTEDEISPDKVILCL
Sequence of IKZF2 (Helios) (Q16531 whole entry partner): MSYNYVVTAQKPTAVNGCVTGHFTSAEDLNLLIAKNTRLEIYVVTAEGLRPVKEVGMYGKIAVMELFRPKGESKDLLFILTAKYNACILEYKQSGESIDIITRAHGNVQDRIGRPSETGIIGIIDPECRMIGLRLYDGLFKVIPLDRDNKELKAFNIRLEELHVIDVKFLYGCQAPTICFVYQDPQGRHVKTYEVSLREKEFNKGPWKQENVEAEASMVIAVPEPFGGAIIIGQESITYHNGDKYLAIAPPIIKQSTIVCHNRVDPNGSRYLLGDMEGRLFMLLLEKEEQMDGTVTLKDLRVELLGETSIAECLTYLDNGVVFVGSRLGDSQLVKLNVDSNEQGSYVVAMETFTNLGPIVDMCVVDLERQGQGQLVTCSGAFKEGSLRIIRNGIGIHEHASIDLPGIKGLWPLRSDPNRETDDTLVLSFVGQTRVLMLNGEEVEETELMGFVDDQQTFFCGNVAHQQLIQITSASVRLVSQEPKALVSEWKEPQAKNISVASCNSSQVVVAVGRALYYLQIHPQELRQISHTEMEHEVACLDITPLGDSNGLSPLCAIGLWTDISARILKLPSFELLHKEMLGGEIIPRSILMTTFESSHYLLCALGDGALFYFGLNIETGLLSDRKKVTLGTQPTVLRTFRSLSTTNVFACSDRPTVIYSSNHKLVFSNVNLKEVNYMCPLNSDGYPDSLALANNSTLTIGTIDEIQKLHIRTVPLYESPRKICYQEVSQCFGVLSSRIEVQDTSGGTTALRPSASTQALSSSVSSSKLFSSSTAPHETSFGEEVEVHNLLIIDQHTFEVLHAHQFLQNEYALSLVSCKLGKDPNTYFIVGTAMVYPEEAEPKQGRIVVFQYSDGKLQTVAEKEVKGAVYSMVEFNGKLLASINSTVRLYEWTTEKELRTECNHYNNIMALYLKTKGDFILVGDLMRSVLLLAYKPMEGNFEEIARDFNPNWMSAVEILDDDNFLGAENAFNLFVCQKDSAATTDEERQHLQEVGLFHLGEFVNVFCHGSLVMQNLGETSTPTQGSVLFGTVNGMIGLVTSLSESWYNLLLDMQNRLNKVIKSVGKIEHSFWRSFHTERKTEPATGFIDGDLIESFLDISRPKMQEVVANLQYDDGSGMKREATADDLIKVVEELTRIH

Compound | IKZF2 % protein reduction at 10 µM [%]
O=C1CCC(N2Cc3cc(O[C@H]4CCC[C@@H]4N4CCC(O)C4)ccc3C2=O)C(=O)N1 (stereo partly drawn) [I-139, 3-(5-(((1S,2S)-2-(3-hydroxypyrrolidin-1-yl)cyclopentyl)oxy)-1-oxoisoindolin-2-yl)piperidine-2,6-dione] | 83
CCN(CC)C1CC(C)(C)CC1Oc1ccc2c(c1)CN(C1CCC(=O)NC1=O)C2=O (mixture of isomers) [I-172, Mixture of 3-(5-(((1S,2S)-2-(diethylamino)-4,4-dimethylcyclopentyl)oxy)-1-oxoisoindolin-2-yl)piperidine-2,6-dione and 3-(5-(((1R,2R)-2-(diethylamino)-4,4-dimethylcyclopentyl)oxy)-1-oxoisoindolin-2-yl)piperidine-2,6-dione] | 58
O=C1CCC(N2Cc3cc(OC4CCCC4N4CCC5(CCOC5)CC4)ccc3C2=O)C(=O)N1 (single isomer, unassigned) [I-176, 3-(5-((2-(2-oxa-8-azaspiro[4.5]decan-8-yl)cyclopentyl)oxy)-1-oxoisoindolin-2-yl)piperidine-2,6-dione] | 89
COc1ccc(CN[C@H]2CCCC[C@@H]2Oc2ccc3c(c2)CN(C2CCC(=O)NC2=O)C3=O)cn1 (stereo partly drawn) [I-92, 3-(5-(((1S,2S)-2-(((6-methoxypyridin-3-yl)methyl)amino)cyclohexyl)oxy)-1-oxoisoindolin-2-yl)piperidine-2,6-dione] | 60
CC(C)N[C@H]1CCCC[C@@H]1Oc1ccc2c(c1)CN(C1CCC(=O)NC1=O)C2=O (stereo partly drawn) [I-131, 3-(5-(((1S,2S)-2-(isopropylamino)cyclohexyl)oxy)-1-oxoisoindolin-2-yl)piperidine-2,6-dione] | 91
COc1ccccc1OC1CN([C@H]2CCC[C@@H]2Oc2ccc3c(c2)CN(C2CCC(=O)NC2=O)C3=O)C1 (stereo partly drawn) [I-178, 3-(5-(((1S,2S)-2-(3-(2-methoxyphenoxy)azetidin-1-yl)cyclopentyl)oxy)-1-oxoisoindolin-2-yl)piperidine-2,6-dione] | 92
O=C1CCC(N2Cc3cc(O[C@H]4CCC[C@@H]4NCc4ccccc4)ccc3C2=O)C(=O)N1 (stereo partly drawn) [I-20, 3-(5-(((1S,2S)-2-(benzylamino)cyclopentyl)oxy)-1-oxoisoindolin-2-yl)piperidine-2,6-dione] | 75
O=C1CCC(N2Cc3cc(O[C@H]4CCC[C@@H]4N4CCCCC4)ccc3C2=O)C(=O)N1 (stereo partly drawn) [I-32, 3-(1-oxo-5-(((1S,2S)-2-(piperidin-1-yl)cyclopentyl)oxy)isoindolin-2-yl)piperidine-2,6-dione] | 85
CCN(CC)[C@H]1CCC[C@@H]1Oc1cc2c(cc1F)C(=O)N(C1CCC(=O)NC1=O)C2 (stereo partly drawn) [I-216, 3-(5-(((1S,2S)-2-(diethylamino)cyclopentyl)oxy)-6-fluoro-1-oxoisoindolin-2-yl)piperidine-2,6-dione] | 60
CCOC1CN([C@H]2CCCC[C@@H]2Oc2ccc3c(c2)CN(C2CCC(=O)NC2=O)C3=O)C1 (stereo partly drawn) [I-48, 3-(5-(((1S,2S)-2-(3-ethoxyazetidin-1-yl)cyclohexyl)oxy)-1-oxoisoindolin-2-yl)piperidine-2,6-dione] | 89
CC1CCN([C@H]2CCC[C@@H]2Oc2ccc3c(c2)CN(C2CCC(=O)NC2=O)C3=O)CC1 (stereo partly drawn) [I-149, 3-(5-(((1S,2S)-2-(4-methylpiperidin-1-yl)cyclopentyl)oxy)-1-oxoisoindolin-2-yl)piperidine-2,6-dione] | 77
N[C@H]1CCC[C@@H]1Oc1ccc2c(c1F)CN(C1CCC(=O)NC1=O)C2=O (stereo partly drawn) [I-213, 3-(5-(((1S,2S)-2-aminocyclopentyl)oxy)-4-fluoro-1-oxoisoindolin-2-yl)piperidine-2,6-dione] | 20
O=C1CCC(N2Cc3cc(O[C@H]4CCOC[C@@H]4NCc4ccccc4)ccc3C2=O)C(=O)N1 (stereo partly drawn) [I-21, 3-(5-(((3S,4S)-3-(benzylamino)tetrahydro-2H-pyran-4-yl)oxy)-1-oxoisoindolin-2-yl)piperidine-2,6-dione] | 30
CCN(CC1CC(C)(C#N)C1)[C@H]1CCC[C@@H]1Oc1ccc2c(c1)CN(C1CCC(=O)NC1=O)C2=O (stereo partly drawn) [I-163, 3-((((1S,2S)-2-((2-(2,6-dioxopiperidin-3-yl)-1-oxoisoindolin-5-yl)oxy)cyclopentyl)(ethyl)amino)methyl)-1-methylcyclobutane-1-carbonitrile] | 78
CN[C@H]1CCCC[C@@H]1Oc1ccc2c(c1)CN(C1CCC(=O)NC1=O)C2=O (stereo partly drawn) [I-36, 3-(5-(((1S,2S)-2-(methylamino)cyclohexyl)oxy)-1-oxoisoindolin-2-yl)piperidine-2,6-dione] | 80
O=C1CCC(N2Cc3cc(O[C@H]4CCCC[C@@H]4NC4CC5(CCOCC5)C4)ccc3C2=O)C(=O)N1 (stereo partly drawn) [I-110, 3-(5-(((1S,2S)-2-((7-oxaspiro[3.5]nonan-2-yl)amino)cyclohexyl)oxy)-1-oxoisoindolin-2-yl)piperidine-2,6-dione] | 89
CC1(C#N)CC(CN[C@H]2CCCC[C@@H]2Oc2ccc3c(c2)CN(C2CCC(=O)NC2=O)C3=O)C1 (single isomer, unassigned) [I-94] | 84
O=C1CCN([C@H]2CCC[C@@H]2Oc2ccc3c(c2)CN(C2CCC(=O)NC2=O)C3=O)CC1 (stereo partly drawn) [I-137, 3-(1-oxo-5-(((1S,2S)-2-(4-oxopiperidin-1-yl)cyclopentyl)oxy)isoindolin-2-yl)piperidine-2,6-dione] | 80
COC1(C)CCN([C@H]2CCCCC[C@@H]2Oc2ccc3c(c2)CN(C2CCC(=O)NC2=O)C3=O)CC1 (stereo partly drawn) [I-60, 3-(5-(((1S,2S)-2-(4-methoxy-4-methylpiperidin-1-yl)cycloheptyl)oxy)-1-oxoisoindolin-2-yl)piperidine-2,6-dione] | 61
O=C1CCC(N2Cc3cc(O[C@H]4CCC[C@@H]4NCC4CC(F)(F)C4)ccc3C2=O)C(=O)N1 (stereo partly drawn) [I-194, 3-(5-(((1S,2S)-2-(((3,3-difluorocyclobutyl)methyl)amino)cyclopentyl)oxy)-1-oxoisoindolin-2-yl)piperidine-2,6-dione] | 83
O=C1CCC(N2Cc3cc(O[C@H]4CCC[C@@H]4N4CC(OCc5ccccc5)C4)ccc3C2=O)C(=O)N1 (stereo partly drawn) [I-52, 3-(5-(((1S,2S)-2-(3-(benzyloxy)azetidin-1-yl)cyclopentyl)oxy)-1-oxoisoindolin-2-yl)piperidine-2,6-dione] | 89
N#CC12CC(CN[C@H]3CCCC[C@@H]3Oc3ccc4c(c3)CN(C3CCC(=O)NC3=O)C4=O)(C1)C2 (stereo partly drawn) [I-120, 3-((((1S,2S)-2-((2-(2,6-dioxopiperidin-3-yl)-1-oxoisoindolin-5-yl)oxy)cyclohexyl)amino)methyl)bicyclo[1.1.1]pentane-1-carbonitrile] | 66
O=C1CCC(N2Cc3cc(O[C@H]4CCCC[C@@H]4NCc4cnc5ccnn5c4)ccc3C2=O)C(=O)N1 (stereo partly drawn) [I-114, 3-(1-oxo-5-(((1S,2S)-2-((pyrazolo[1,5-a]pyrimidin-6-ylmethyl)amino)cyclohexyl)oxy)isoindolin-2-yl)piperidine-2,6-dione] | 54
CO[C@H]1CC[C@H](CN[C@H]2CCCCC[C@@H]2Oc2ccc3c(c2)CN(C2CCC(=O)NC2=O)C3=O)CC1 (stereo partly drawn) [I-64, 3-(5-(((1S,2S)-2-((((1r,4S)-4-methoxycyclohexyl)methyl)amino)cycloheptyl)oxy)-1-oxoisoindolin-2-yl)piperidine-2,6-dione] | 84
N[C@H]1CCC[C@@H]1Oc1ccc2c(c1)CN(C1CCC(=O)NC1=O)C2=O (stereo partly drawn) [Cmpd I-12] | 65
N[C@H]1COC[C@@H]1Oc1ccc2c(c1)CN(C1CCC(=O)NC1=O)C2=O (stereo partly drawn) [I-46, 3-(5-(((3R,4S)-4-aminotetrahydrofuran-3-yl)oxy)-1-oxoisoindolin-2-yl)piperidine-2,6-dione] | 0
O=C1CCC(N2Cc3cc(O[C@H]4CCC[C@@H]4N4CC5(COC5)C4)ccc3C2=O)C(=O)N1 (stereo partly drawn) [I-147, 3-(5-(((1S,2S)-2-(2-oxa-6-azaspiro[3.3]heptan-6-yl)cyclopentyl)oxy)-1-oxoisoindolin-2-yl)piperidine-2,6-dione] | 44

Same assay, conditions: 24 h, read-out: IKZF2 % protein reduction at 10 μM, 24 h

Compound | IKZF2 % protein reduction at 10 µM [%]
CC1(C)CCN([C@H]2CCC[C@@H]2Oc2ccc3c(c2)CN(C2CCC(=O)NC2=O)C3=O)CC1 (stereo partly drawn) [I-153, 3-(5-(((1S,2S)-2-(4,4-dimethylpiperidin-1-yl)cyclopentyl)oxy)-1-oxoisoindolin-2-yl)piperidine-2,6-dione] | 85
O=C1CCC(N2Cc3cc(O[C@H]4CCCCC[C@@H]4NCc4ccccc4)ccc3C2=O)C(=O)N1 (stereo partly drawn) [I-58, 3-(5-(((1S,2S)-2-(benzylamino)cycloheptyl)oxy)-1-oxoisoindolin-2-yl)piperidine-2,6-dione] | 75
O=C1CCC(N2Cc3cc(O[C@H]4CCC[C@@H]4N4CCC(F)CC4)ccc3C2=O)C(=O)N1 (stereo partly drawn) [I-166, 3-(5-(((1S,2S)-2-(4-fluoropiperidin-1-yl)cyclopentyl)oxy)-1-oxoisoindolin-2-yl)piperidine-2,6-dione] | 81
O=C1CCC(N2Cc3cc(O[C@H]4CCC[C@@H]4N4CCC(OCC5CC5)CC4)ccc3C2=O)C(=O)N1 (stereo partly drawn) [I-186, 3-(5-(((1S,2S)-2-(4-(cyclopropylmethoxy)piperidin-1-yl)cyclopentyl)oxy)-1-oxoisoindolin-2-yl)piperidine-2,6-dione] | 86
N[C@@H]1CCC[C@@H]1Oc1ccc2c(c1)CN(C1CCC(=O)NC1=O)C2=O (stereo partly drawn) [I-28, 3-(5-(((1S,2R)-2-aminocyclopentyl)oxy)-1-oxoisoindolin-2-yl)piperidine-2,6-dione hydrochloride] | 0
CCN[C@H]1c2ccccc2C[C@@H]1Oc1ccc2c(c1)CN(C1CCC(=O)NC1=O)C2=O (stereo partly drawn) [I-198, 3-(5-(((1S,2S)-1-(ethylamino)-2,3-dihydro-1H-inden-2-yl)oxy)-1-oxoisoindolin-2-yl)piperidine-2,6-dione] | 67
